Measurements reported in publication PMC11396803, “Synthesis of Tumor Selective Indole and 8-Hydroxyquinoline Skeleton Containing Di-, or Triarylmethanes with Improved Cytotoxic Activity” (Molecules, 2024).
Read-outs that look alike come from different tables or passages of the source.

Experiments:
Format in all cases: cell-based, human
[1] = tested on: MRC-5 embryonic lung fibroblast cell line; assay: MTT cytotoxicity assay on normal MRC-5 fibroblasts; settings: for IC50: Homo sapiens; for Cytotoxic effect on normal MRC-5 cells (in words): up to 100 µM
Procedure: (§1) The doxorubicin-sensitive Colo205 (ATCC-CCL-222) and the doxorubicin-resistant ABCB1- and LRP-expressing Colo320/MDR-LRP (ATCC-CCL-220.1) human colon adenocarcinoma cell lines were obtained from LGC Promochem in Teddington, UK. These cell lines were cultivated in RPMI 1640 medium supplemented with 10% heat-inactivated foetal bovine serum (FBS), 2 mM L-glutamine, 1 mM Na-pyruvate, 10 mM HEPES, along with nystatin, and gentamicin. The normal MRC-5 (ATCC CCL-171) human embryonic lung fibroblast cell line was purchased from Sigma-Aldrich (Merck KGaA, Darmstadt, Germany). The MRC-5 cells were cultured in EMEM medium, supplemented with 1% non-essential amino acid (NEAA) mixture, a selection of vitamins, 10% heat-inactivated FBS, 2 mM L-glutamine, 1 mM Na pyruvate, nystatin, and gentamicin. The cell lines were incubated in humidified atmosphere (5% CO2, 95% air) at 37 °C. The cells were detached with a Trypsin-Versene (EDTA) solution for 5 min at 37 °C.
(§2) The effects of increasing concentrations of the compounds on cell growth were tested in 96-well flat-bottomed microtiter plates. Namely, 1 × 10^4 of human colonic adenocarcinoma cells in 100 μL of the medium (RPMI 1640) were added to each well, except for the medium control wells. The adherent human embryonic lung fibroblast cell line was seeded in the EMEM medium for 24 h before the assay. The two-fold serial dilutions of the compounds were made in a separate plate (100–0.19 μM) and then transferred to the plates containing the cells. The starting concentration of the solvent DMSO was 2% v/v, and the highest concentration of the compounds in the plate was 100 μM. Plates were incubated at 37 °C for 24 h. At the end of the incubation, 20 μL of MTT (thiazolyl blue tetrazolium bromide) solution (from a 5 mg/mL stock solution) was added to each well. After incubation at 37 °C for 4 h, 100 μL of sodium dodecyl sulfate (SDS) solution (10% SDS in 0.01 M HCl) was added to each well, and the plates were further incubated at 37 °C overnight. Cell growth was determined by measuring the optical density (OD) at 540 nm (ref. 630 nm) with a Multiscan EX ELISA reader (Thermo Labsystems, Cheshire, WA, USA). Inhibition of cell growth was expressed as IC50 values, defined as the inhibitory dose that reduces the growth of the cells exposed to the tested compounds by 50%. IC50 values and the SD of triplicate and duplicate (in the case of MRC-5) experiments were calculated by using GraphPad Prism software version 5.00 for Windows, with a non-linear regression curve fit (GraphPad Software, San Diego, CA, USA; www.graphpad.com, accessed on 12 July 2021). Doxorubicin (from a 2 mg/mL stock solution, Teva Pharmaceuticals) was used as a positive control. […] The relative resistance (RR) was calculated as the ratio of the IC50 value in the resistant cancer cells and the IC50 value in the sensitive cancer cell lines. The selectivity indexes (SI) were calculated as the ratio of the IC50 value in the non-tumor cells and the IC50 value in the cancer cell lines. The activity of the compounds towards cancer cells is considered to be strongly selective if the selectivity index (SI) value is higher than 6, moderately selective if 3 < SI < 6, slightly selective if 1 < SI < 3, and non-selective if the SI is lower than 1 [22].

[2] = tested on: Colo320/MDR-LRP colon adenocarcinoma cell line; assay: MTT cytotoxicity assay on doxorubicin-resistant, ABCB1- and LRP-expressing Colo320 cells; settings: for IC50: Homo sapiens, COLO 320; for IC50 / Cytotoxic effect on Colo320 cells (in words): MTT; for Cytotoxic effect on Colo320 cells (in words): up to 100 µM; for Selectivity index SI MRC-5/Colo320: ratio of IC50 in non-tumor MRC-5 cells and IC50 in Colo320
Procedure: as §1, §2

[3] = tested on: Colo205 colon adenocarcinoma cell line; assay: MTT cytotoxicity assay on doxorubicin-sensitive Colo205 cells; settings: for IC50: Homo sapiens, COLO 205; for IC50 / Cytotoxic effect on Colo205 cells (in words): MTT; for Cytotoxic effect on Colo205 cells (in words): up to 100 µM; for Selectivity index SI MRC-5/Colo205: ratio of IC50 in non-tumor MRC-5 cells and IC50 in Colo205
Procedure: as §1, §2

[4] = MRC5, 24 h incubation, average of 2 parallel experiments, read-out: IC50 MRC-5 AV ± SD
[5] = 24 h incubation, average of 3 parallel experiments, read-out: IC50 Colo320 AV ± SD
[6] = 24 h incubation, average of 3 parallel experiments, read-out: IC50 Colo205 AV ± SD
[7] = 24 h, single experiment, read-out: IC50 Colo320, parallel experiment 1
[8] = 24 h, single experiment, read-out: IC50 Colo320, parallel experiment 2
[9] = 24 h, single experiment, read-out: IC50 Colo320, parallel experiment 3
[10] = 24 h, single experiment, read-out: IC50 Colo205, parallel experiment 1
[11] = 24 h, single experiment, read-out: IC50 Colo205, parallel experiment 2
[12] = 24 h, single experiment, read-out: IC50 Colo205, parallel experiment 3
[13] = MRC5, 24 h, single experiment, read-out: IC50 MRC-5, parallel experiment 1
[14] = MRC5, 24 h, single experiment, read-out: IC50 MRC-5, parallel experiment 2

Structure (SMILES): O=C1Oc2ccc3ccccc3c2C1c1c[nH]c2ccccc12 (stereo not shown) [Compound 3, 1-(1H-indol-3-yl)naphtho[2,1-b]furan-2(1H)-one]
- IC50 [1, 4]: > 100 µM
- IC50 [2, 5]: > 100 µM
- Cytotoxic effect on Colo320 cells (in words) [2]: no effect
- IC50 [3, 6]: > 100 µM
- Cytotoxic effect on Colo205 cells (in words) [3]: no effect

Structure (SMILES): CCOC(=O)C(c1ccc2ccccc2c1O)c1c[nH]c2ccccc12 (stereo not shown) [Compound 7, Ethyl 2-(1-hydroxynaphthalen-2-yl)-2-(1H-indol-3-yl)acetate]
- IC50 [1, 4]: > 100 µM
- IC50 [2, 7]: 53.8 µM
- IC50 [2, 8]: 54.9 µM
- IC50 [2, 9]: 52.2 µM
- IC50 [2, 5]: 53.6 ± 1.38 µM
- IC50 [3, 6]: > 100 µM
- Cytotoxic effect on Colo205 cells (in words) [3]: no effect

Structure (SMILES): CCOC(=O)C(c1cc(Cl)c2cccnc2c1O)N1CCOCC1 (stereo not shown) [Compound 10, Ethyl 2-(5-chloro-8-hydroxyquinolin-7-yl)-2-morpholinoacetate]
- IC50 [1, 4]: > 100 µM
- Cytotoxic effect on normal MRC-5 cells (in words) [1]: no toxicity
- IC50 [2, 7]: 1.56 µM
- IC50 [2, 8]: 1.81 µM
- IC50 [2, 9]: 1.79 µM
- IC50 [2, 5]: 1.72 ± 0.14 µM
- Selectivity index SI MRC-5/Colo320 [2]: >6
- IC50 [3, 10]: 2.07 µM
- IC50 [3, 11]: 2.06 µM
- IC50 [3, 12]: 2.02 µM
- IC50 [3, 6]: 2.05 ± 0.02 µM
- Selectivity index SI MRC-5/Colo205 [3]: >6

Structure (SMILES): CCOC(=O)C(c1cc(Cl)c2cccnc2c1O)c1c[nH]c2ccccc12 (stereo not shown) [Compound 11, Ethyl 2-(5-chloro-8-hydroxyquinolin-7-yl)-2-(1H-indol-3-yl)acetate]
- IC50 [1, 13]: 54.5 µM
- IC50 [1, 14]: 55.1 µM
- IC50 [1, 4]: 54.77 ± 0.44 µM
- Cytotoxic effect on normal MRC-5 cells (in words) [1]: mild cytotoxic effect
- IC50 [2, 7]: 4.64 µM
- IC50 [2, 8]: 4.83 µM
- IC50 [2, 9]: 4.96 µM
- IC50 [2, 5]: 4.81 ± 0.16 µM
- Selectivity index SI MRC-5/Colo320 [2]: 11.4
- IC50 [3, 10]: 5.51 µM
- IC50 [3, 11]: 4.71 µM
- IC50 [3, 12]: 4.42 µM
- IC50 [3, 6]: 4.88 ± 0.56 µM
- Selectivity index SI MRC-5/Colo205 [3]: 11.2

Structure (SMILES): CCOC(=O)C(c1cc(Cl)c2cccnc2c1O)c1c[nH]c2ncccc12 (stereo not shown) [Compound 12, Ethyl 2-(5-chloro-8-hydroxyquinolin-7-yl)-2-(7-azaindole-3-yl)acetate]
- IC50 [1, 13]: 46.9 µM
- IC50 [1, 14]: 45.6 µM
- IC50 [1, 4]: 46.2 ± 0.95 µM
- Cytotoxic effect on normal MRC-5 cells (in words) [1]: mild cytotoxic effect
- IC50 [2, 7]: 5.16 µM
- IC50 [2, 8]: 4.92 µM
- IC50 [2, 9]: 5.11 µM
- IC50 [2, 5]: 5.06 ± 0.12 µM
- Selectivity index SI MRC-5/Colo320 [2]: 9.1
- IC50 [3, 10]: 8.05 µM
- IC50 [3, 11]: 7.42 µM
- IC50 [3, 12]: 8.84 µM
- IC50 [3, 6]: 8.11 ± 0.71 µM
- Selectivity index SI MRC-5/Colo205 [3]: 5.7

Structure (SMILES): Oc1c(C(c2ccccc2)c2c[nH]c3ccccc23)cc(Cl)c2cccnc12 (stereo not shown) [Compound 14, 7-((1H-indol-3-yl)(phenyl)methyl)-5-chloroquinolin-8-ol]
- IC50 [1, 13]: 30.1 µM
- IC50 [1, 14]: 29.3 µM
- IC50 [1, 4]: 29.7 ± 0.57 µM
- Cytotoxic effect on normal MRC-5 cells (in words) [1]: mild cytotoxic effect
- IC50 [2, 7]: 2.55 µM
- IC50 [2, 8]: 2.84 µM
- IC50 [2, 9]: 2.78 µM
- IC50 [2, 5]: 2.72 ± 0.15 µM
- Selectivity index SI MRC-5/Colo320 [2]: 11
- IC50 [3, 10]: 2.49 µM
- IC50 [3, 11]: 2.49 µM
- IC50 [3, 12]: 2.63 µM
- IC50 [3, 6]: 2.53 ± 0.08 µM
- Selectivity index SI MRC-5/Colo205 [3]: 11.7

Structure (SMILES): Oc1c(Cc2c[nH]c3ccccc23)cc(Cl)c2cccnc12 [Compound 16, 7-((1H-indol-3-yl)methyl)-5-chloroquinolin-8-ol]
- IC50 [1, 4]: > 100 µM
- Cytotoxic effect on normal MRC-5 cells (in words) [1]: no toxicity
- IC50 [2, 7]: 4.97 µM
- IC50 [2, 8]: 4.74 µM
- IC50 [2, 9]: 4.91 µM
- IC50 [2, 5]: 4.87 ± 0.12 µM
- Cytotoxic effect on Colo320 cells (in words) [2]: potent toxic activity
- Selectivity index SI MRC-5/Colo320 [2]: >6
- IC50 [3, 10]: 13.6 µM
- IC50 [3, 11]: 13.4 µM
- IC50 [3, 12]: 12.3 µM
- IC50 [3, 6]: 13.1 ± 0.7 µM
- Selectivity index SI MRC-5/Colo205 [3]: >6

Structure (SMILES): Oc1c(Cc2c[nH]c3ncccc23)cc(Cl)c2cccnc12 [Compound 17, 7-((7-azaindole-3-yl)methyl)-5-chloroquinolin-8-ol]
- IC50 [1, 4]: > 100 µM
- IC50 [2, 7]: 23 µM
- IC50 [2, 8]: 21.9 µM
- IC50 [2, 9]: 22.5 µM
- IC50 [2, 5]: 22.5 ± 0.55 µM
- IC50 [3, 10]: 36.5 µM
- IC50 [3, 11]: 39.4 µM
- IC50 [3, 12]: 40.4 µM
- IC50 [3, 6]: 38.8 ± 2.03 µM

Structure (SMILES): COc1cccc2c1C(=O)c1c(O)c3c(c(O)c1C2=O)C[C@@](O)(C(=O)CO)C[C@@H]3O[C@H]1C[C@H](N)[C@H](O)[C@H](C)O1 [DOX, Doxorubicin, reference compound]
- IC50 [1, 4]: > 8.62 µM
- IC50 [2, 7]: 3.12 µM
- IC50 [2, 8]: 3.12 µM
- IC50 [2, 9]: 2.96 µM
- IC50 [2, 5]: 3.07 ± 0.09 µM
- IC50 [3, 10]: 0.84 µM
- IC50 [3, 11]: 0.89 µM
- IC50 [3, 12]: 0.81 µM
- IC50 [3, 6]: 0.85 ± 0.04 µM
